These results are taken from publication PMC9953885 (Biosensors, 2023).

Structures can show the parent of a compound that is named as a salt.

The target in this experiment is T1, human pancreatic lipase (hPL) (Homo sapiens, UniProt P16233).
T1 construct: gene PNLIP
T1 sequence (P16233 17-465): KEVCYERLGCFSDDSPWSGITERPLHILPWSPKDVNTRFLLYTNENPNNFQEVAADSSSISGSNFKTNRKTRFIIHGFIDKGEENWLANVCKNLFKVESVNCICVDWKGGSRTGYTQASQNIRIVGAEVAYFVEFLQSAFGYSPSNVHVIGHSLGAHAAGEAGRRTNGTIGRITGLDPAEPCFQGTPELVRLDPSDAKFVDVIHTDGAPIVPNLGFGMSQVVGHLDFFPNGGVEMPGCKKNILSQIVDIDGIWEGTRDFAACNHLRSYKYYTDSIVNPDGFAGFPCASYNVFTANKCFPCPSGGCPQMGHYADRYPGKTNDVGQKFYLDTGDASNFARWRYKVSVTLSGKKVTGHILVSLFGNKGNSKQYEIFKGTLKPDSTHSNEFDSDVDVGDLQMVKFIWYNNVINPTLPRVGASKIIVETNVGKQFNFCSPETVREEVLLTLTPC
The settings on record: 10 µM; inhibitor. The procedure:
First, we evaluated the inhibitory effect of 94 natural products derived from herbs and 94 drugs on hPL. In our high-throughput screening system, 1 ug/mL hPL was used, and the final concentration of the 94 natural products derived from herbs and 94 drugs used was 10 μM. Other conditions were the same as in the selectivity experiments. […] RLE was incubated with hPL and various enzymes, such as hCES1A, hCES2A, CA, AchE, BchE, 5-HKE, lysozyme, trypsin, thrombin, α-CT, FAP, PREP, pepsin, α-amylase, plasmin, notum and hSA, in a 100 µL incubation mixture consisting of Tris-HCl (pH = 7.4, 25 mM), NaCl (150 mM), CaCl2 (1 mM) and porcine bile salt (0.1 mg/mL) at a concentration of 1.5 µg/mL. The reaction was initiated by adding RLE to the preincubated enzyme mixture at 37 °C, and metabolite formation was determined by measuring the fluorescence intensity of resorufin at 590 nm. In addition, several amino acids (IIe, His, Trp, Val, Leu, Tyr, Ala, Thr, Pro, Asp, Lys, Met, Cys, Ser, Phe, Gly, Glu and Gln), ions (Ni^2+, Ca^2+, Na^+, K^+, Cu^2+, Zn^2+, Mg^2+, NH4^+, Cu^+, Fe^2+ and CN^-) and GSH were measured. The concentration of these interfering factors was 5 μM. […] In this case, a visual high-throughput assay was established to screen hPL inhibitors, using RLE as a fluorogenic substrate in a 96-well microplate.

For `COc1cc([C@@H]2c3cc4c(cc3[C@@H](O[C@@H]3O[C@@H]5CO[C@@H](C)O[C@H]5[C@H](O)[C@H]3O)[C@H]3COC(=O)[C@H]23)OCO4)cc(OC)c1O` [Etoposide], the “% of control remaining” value was 65.05%. For `O=C1[C@H](CC[C@H](O)c2ccc(F)cc2)[C@@H](c2ccc(O)cc2)N1c1ccc(F)cc1` [Ezetimibe], the “% of control remaining” value is 119.27%. In the case of `CCOC(=O)C1=C(C)NC(C)=C(C(=O)OC)C1c1cccc(Cl)c1Cl` (stereo not drawn) [Felodipine] it was 93.02%; in that of `CC(C)OC(=O)C(C)(C)Oc1ccc(C(=O)c2ccc(Cl)cc2)cc1` [Fenofibrate], 94.68%; in that of `CC(C(=O)O)c1cccc(Oc2ccccc2)c1` (stereo not drawn) [Fenoprofen], 91.13%. With `COc1ccc(-c2coc3cc(O)ccc3c2=O)cc1` [Formononetin] the figure was 104.25%; with `NS(=O)(=O)c1cc(C(=O)O)c(NCc2ccco2)cc1Cl` [Furosemide], 100.00%; with `Nc1ccn([C@@H]2O[C@H](CO)[C@@H](O)C2(F)F)c(=O)n1` [Gemcitabine], 105.06%.

Regarding `COC(=O)C1=CO[C@@H](O)[C@@H]2C(CO)=CC[C@H]12` [Genipin], the “% of control remaining” value is recorded as 99.28%.

Take `O=c1c(-c2ccc(O)cc2)coc2cc(O)cc(O)c12` [Genistein]: the “% of control remaining” value came to 106.48%. With `C#C[C@]1(O)CC[C@H]2[C@@H]3CCC4=CC(=O)CCC4=C3C=C[C@@]21CC` [Gestrinone] the figure was 66.72%; with `COc1cc(O)c2c(=O)cc(-c3ccc(OC)c(-c4c(O)cc(O)c5c(=O)cc(-c6ccc(O)cc6)oc45)c3)oc2c1` [Ginkgetin], 39.42%. As for `C[C@@H]1C(=O)O[C@H]2C[C@@]34[C@H]5C[C@@H](C(C)(C)C)[C@]36[C@@H](OC(=O)[C@@H]6O)O[C@@]4(C(=O)O5)[C@]21O` [Ginkgolide A], the “% of control remaining” value is given as 125.97%. With `C[C@@H]1C(=O)O[C@H]2[C@H](O)[C@@]34[C@H]5C[C@@H](C(C)(C)C)[C@]36[C@@H](OC(=O)[C@@H]6O)O[C@@]4(C(=O)O5)[C@@]12O` [Ginkgolide B] the figure was 120.07%. Take `C[C@@H]1C(=O)O[C@H]2[C@H](O)[C@@]34O[C@@H]5OC(=O)[C@H](O)[C@@]56[C@H](C(C)(C)C)[C@H](O)C(OC3=O)[C@]64[C@@]12O` (stereo partly drawn) [Ginkgolide C]: the “% of control remaining” value is listed as 106.22%. In the case of `CCC1=C(C)CN(C(=O)NCCc2ccc(S(=O)(=O)NC(=O)N[C@H]3CC[C@H](C)CC3)cc2)C1=O` [Glimepiride] it was 90.05%. On to `COc1cc2c(=O)c(-c3ccc(O)cc3)coc2cc1O[C@@H]1O[C@H](CO)[C@@H](O)[C@H](O)[C@H]1O` [Glycitin], for which the “% of control remaining” value is reported as 99.85%. For `O=c1c(O)c(-c2ccc(O)cc2)oc2c(O)c(O)cc(O)c12` [Herbacetin], the “% of control remaining” value worked out at 83.59%. As to `COC(=O)C[C@](O)(CCCC(C)(C)O)C(=O)O[C@@H]1C(OC)=C[C@]23CCCN2CCc2cc4c(cc2[C@H]13)OCO4` [Homoharringtonine], the “% of control remaining” value stood at 74.77%. For the compound `NS(=O)(=O)c1cc2c(cc1Cl)NCNS2(=O)=O` [Hydrochlorothiazide], the “% of control remaining” value is 99.42%. Turning to `C[C@]12CCC(=O)C=C1CC[C@@H]1[C@@H]2[C@@H](O)C[C@@]2(C)[C@H]1CC[C@]2(O)C(=O)CO` [Hydrocortisone], the “% of control remaining” value was determined as 56.27%. With `O=C1C([C@@H]2O[C@H](CO)[C@@H](O)[C@H](O)[C@H]2O)=C(O)/C(=C(O)/C=C/c2ccc(O)cc2)C(=O)C1(O)[C@@H]1O[C@H](CO)[C@@H](O)[C@H](O)[C@H]1O` (stereo partly drawn) [Hydroxysafflor yellow A] the figure was 76.59%; with `CC(C)Cc1ccc(C(C)C(=O)O)cc1` (stereo not drawn) [Ibuprofen], 103.68%. With `CN(C)CCCN1c2ccccc2CCc2ccccc21` [Imipramine hydrochloride] the figure was 92.51%.

For `CC(C)=CCOc1c2occc2cc2ccc(=O)oc12` [Imperatorin], the “% of control remaining” value turned out to be 75.61%. In the case of `COc1ccc2c(c1)c(CC(=O)O)c(C)n2C(=O)c1ccc(Cl)cc1` [Indometacin] it was 102.95%. With `CC(C)Oc1ccc2c(=O)c(-c3ccccc3)coc2c1` [Ipriflavone] the figure was 84.50%; with `CCc1c2c(nc3ccc(OC(=O)N4CCC(N5CCCCC5)CC4)cc13)-c1cc3c(c(=O)n1C2)COC(=O)[C@]3(O)CC` [Irinotecan], 105.25%; with `COc1cc(-c2coc3cc4c(c(OC)c3c2=O)OCO4)cc(OC)c1OC` [Irisflorentin], 66.38%. In the case of `C=C1C(=O)O[C@@H]2C[C@@]3(C)CCCC(=C)[C@@H]3C[C@H]12` [Isoalantolactone] it was 70.02%; in that of `COc1ccc(-c2cc(=O)c3c(O)cc(O)c(-c4cc(-c5cc(=O)c6c(O)cc(O)cc6o5)ccc4OC)c3o2)cc1` [Isoginkgetin], 54.78%; in that of `CC(C)=CCOc1c2ccoc2cc2oc(=O)ccc12` [Isoimperatorin], 72.90%. As for `COc1cc(-c2oc3cc(O)cc(O)c3c(=O)c2O[C@@H]2O[C@H](CO)[C@@H](O)[C@H](O)[C@H]2O)ccc1O` [Isorhamnetin-3-glucoside], the “% of control remaining” value is 93.93%. In the case of `CC[C@H]1CN2CC[C@@]3(C(=O)Nc4ccccc43)[C@@H]2C[C@@H]1/C(=C\OC)C(=O)OC` [Isorhynchophylline], the “% of control remaining” value is reported as 87.99%. As for `O=c1cc(-c2ccc(O)cc2)oc2cc(O)c([C@@H]3O[C@H](CO)[C@@H](O)[C@H](O)[C@H]3O)c(O)c12` [Isovitexin], the “% of control remaining” value is reported as 79.86%.

For the compound `C[C@@H]1CC[C@@]2(NC1)O[C@H]1C[C@H]3[C@@H]4CC=C5C[C@@H](O[C@@H]6O[C@H](CO)[C@@H](O[C@@H]7O[C@@H](C)[C@H](O)[C@@H](O)[C@H]7O)[C@H](O)[C@H]6O)CC[C@]5(C)[C@H]4CC[C@]3(C)[C@H]1[C@@H]2C` [Khasianine], the “% of control remaining” value is 102.50%. In the case of `Nc1nnc(-c2cccc(Cl)c2Cl)c(N)n1` [Lamotrigine] it was 84.88%. In the case of `COc1c(/C=C/C(=O)c2ccc(O)cc2)ccc(O)c1O` [Licochalcone B] it was 58.04%; in that of `COc1c(/C=C/C(=O)c2ccc(O)c(CC=C(C)C)c2)ccc(O)c1O` [Licochalcone D], 80.45%. With `CC1(C)O[C@H]2CC(=O)OC[C@]23[C@H]2CC[C@@]4(C)[C@H](c5ccoc5)OC(=O)[C@H]5O[C@]54[C@]2(C)C(=O)C[C@@H]13` [Limonin] the figure was 85.30%. Regarding `CC#CCn1c(N2CCC[C@@H](N)C2)nc2c1c(=O)n(Cc1nc(C)c3ccccc3n1)c(=O)n2C` [Linagliptin], the “% of control remaining” value is on record as 108.93%.

In the case of `CC(=O)NC[C@H]1CN(c2ccc(N3CCOCC3)c(F)c2)C(=O)O1` [Linezolid], the “% of control remaining” value came to 91.81%.

Consider `O=C1C[C@@H](c2ccc(O[C@@H]3O[C@H](CO)[C@@H](O)[C@H](O)[C@H]3O)cc2)Oc2cc(O)ccc21` [Liquiritin], for which the “% of control remaining” value came to 105.77%. In the case of `CCOC(=O)N1CCC(=C2c3ccc(Cl)cc3CCc3cccnc32)CC1` [Loratadine] it was 96.14%. Regarding `COc1ccc(CCC(=O)c2ccc(O)cc2)c(OC)c1` [Loureirin A], the “% of control remaining” value is on record as 67.52%. In the case of `COc1cc(OC)c(CCC(=O)c2ccc(O)cc2)c(OC)c1` [Loureirin B] it was 79.89%; in that of `CC[C@H](C)C(=O)O[C@H]1C[C@@H](C)C=C2C=C[C@H](C)[C@H](CC[C@@H]3C[C@@H](O)CC(=O)O3)[C@H]21` [Lovastatin], 80.96%; in that of `COc1ccc(-c2cc(=O)c3c(O)c(OC)c(O)c(OC)c3o2)cc1` [Lysionotin], 84.30%.

Regarding `CC(=O)O[C@]1(C(C)=O)CC[C@H]2[C@@H]3C[C@H](C)C4=CC(=O)CC[C@]4(C)[C@H]3CC[C@@]21C` [Medroxyprogesterone Acetate], the “% of control remaining” value was determined as 68.77%. In the case of `Cc1coc2c1CCC(C)C2` (stereo not drawn) [Menthofuran] it was 108.33%; in that of `COC(=O)/C=C/c1ccc(O)c(O)c1` [Methyl caffeate], 72.74%.
